Results taken from PubChem BioAssay (NCI).
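Dose response: 5 concentrations. Exposure: 48 h. Format: 96-well plates. Endpoint: linear interpolation; highest concentration if not reached. Here, GI50 denotes the concentration required for 50% inhibition of growth. TGI: concentration producing complete growth inhibition.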

How the values were obtained:
Assay in all cases: NCI tumour cell line growth inhibition, 48 h
SK-OV-3 ovarian = system: SK-OV-3 ovarian
EKVX NSCLC = system: EKVX NSCLC
OVCAR-3 ovarian = system: OVCAR-3 ovarian
UACC-257 melanoma = system: UACC-257 melanoma
MALME-3M melanoma = system: MALME-3M melanoma
IGROV1 ovarian = system: IGROV1 ovarian
NCI-H226 lung = system: NCI-H226 lung
PC-3 prostate = system: PC-3 prostate
HS 578T breast = system: HS 578T breast
NCI/ADR-RES ovarian = system: NCI/ADR-RES ovarian

Compound	TGI (SK-OV-3 ovarian) [µM]	TGI (EKVX NSCLC) [µM]	TGI (OVCAR-3 ovarian) [µM]	TGI (UACC-257 melanoma) [µM]	TGI (MALME-3M melanoma) [µM]	TGI (IGROV1 ovarian) [µM]	TGI (NCI-H226 lung) [µM]	GI50 (EKVX NSCLC) [µM]	GI50 (OVCAR-3 ovarian) [µM]	GI50 (UACC-257 melanoma) [µM]	GI50 (PC-3 prostate) [µM]	TGI (PC-3 prostate) [µM]	GI50 (HS 578T breast) [µM]	TGI (HS 578T breast) [µM]	GI50 (MALME-3M melanoma) [µM]	GI50 (IGROV1 ovarian) [µM]	GI50 (NCI-H226 lung) [µM]	GI50 (SK-OV-3 ovarian) [µM]	GI50 (NCI/ADR-RES ovarian) [µM]	TGI (NCI/ADR-RES ovarian) [µM]
CCc1ccccc1NC(=O)c1cccc([N+](=O)[O-])c1O	> 100	> 100	> 100	77	> 100	> 100	88.7													
O=c1/c(=C/c2ccccc2[N+](=O)[O-])sc2nnc(-c3cccnc3)n12		> 100	> 100	> 100	> 100	> 100	> 100													
CCN(CC)Cc1cc(Nc2nc(NC3CCC(N(C)C)CC3)c3ccccc3n2)ccc1OC (centres undefined)		25.5	24.7	3.84	3.73	34.3	16.8	7.75	11.6	1.82	6.97	24.3	0.677	14.5	1.61	12.8	3.94			
N#CNC(N)=NCc1ccccc1	> 100		> 100	> 100	> 100	> 100	> 100													
CCn1cc(C(=O)O)c(=O)c2cc(F)c(N3CCN(S(=O)(=O)c4cccc5ccccc45)CC3)cc21	13.4		15.6	7.72	7.83	7.49	> 100		3.69	2.72	2.66	> 100	2.68	9.88	2.83	2.47	3.71	3.11	3.2	> 100
CCNc1nc(O)c(/C=C2\C=Nc3ncccc32)s1	9.12	> 100	8.49	15.5		> 100	28.7	16.6	2.66	4.17	4.04	> 100	2.95	8.29		4.66	2.83	2.86	10.5	> 100
CCN(C)c1nc(N(C)CC)c2nc(N(C)CC)nc(N(C)CC)c2n1	> 100	> 100	> 100	> 100	> 100	> 100						> 100		> 100						> 100
COc1cc([C@@H]2c3cc4c(cc3[C@@H](NC(=O)c3ccc(C#N)cc3)C3COC(=O)[C@@H]32)OCO4)cc(OC)c1O (some centres undefined)	2.87	5.73	4.66	20.1	2.59	5.13	0.508													
O=C1NC(=O)c2c1n(Cc1ccccc1)c(=O)n2Cc1ccccc1	> 100	> 100	> 100	> 100	> 100	> 100	> 100													
CCCCCCCCCCCC[N+]1(CCCCCCCCCCCC)CCCC(C)C1 (centres undefined)		1.65	0.569					0.269	0.197		0.167	0.536	0.472	2.2					4.41	> 100
